Laboratory results reported in PMC11765572 (International Journal of Molecular Sciences, 2025).

System: SARS-CoV-2 (BetaCov/Belgium/GHB-03021/2020 B.1 lineage A)

| SMILES | SI (Selection Index) = CC50/EC50 |
| --- | --- |
| CNC(=O)c1cc(Br)cc([N+](=O)[O-])c1N[C@@H]1CCCC[C@@H]1NC(=O)c1cccnc1 [Compound A5, N-((1S,2R)-2-((4-bromo-2-(methylcarbamoyl)-6-nitrophenyl)amino)cyclohexyl)nicotinamide] | >49.7 |
| CNC(=O)c1cc(Br)cc([N+](=O)[O-])c1N[C@@H]1CCCC[C@@H]1NC(=O)c1cncc(O)c1 [Compound A6, N-((1S,2R)-2-((4-bromo-2-(methylcarbamoyl)-6-nitrophenyl)amino)cyclohexyl)-5-hydroxynicotinamide] | >16.5 |
